Values quoted from earlier work as cited in US20050227989A1, “Polycyclic thiazoles as potassium ion channel modulators” (ICAgen, Inc., priority 2004, published 2005).

Target: SK2 subtype channels (Rattus norvegicus, UniProt P70604)
Conditions: patch clamp; cited from earlier work

SMILES | block of SK2 channel currents
CN(C)CCC=C1c2ccccc2CCc2ccccc21 [amitriptyline] | block SK2 channel currents with micromolar affinity
CN(C)CCCN1c2ccccc2Sc2ccc(Cl)cc21 [chlorpromazine] | block SK2 channel currents with micromolar affinity
